The values that follow are results of earlier work, collected in patent publication US7959947B2, “Film coating” (AstraZeneca AB, priority 2001, dated 2011).

The conditions of the series: 60° C.; according to data in Handbook of Pharmaceutical Excipients.

`CCCCCCCCCCCCCCCCCCOC(=O)/C=C/C(=O)[O-].[Na+]` [Sodium stearyl fumarate, sodium salt of 2-butenedioic monooctadecyl ester]: the Solubility in water is 0.005 gram per gram water.
